# Structures can show the parent of a compound that is named as a salt.
# Tests used:
# [1] = Drug absorption experiment in SD rats, intragastric administration; assay type: in vivo, SD rats (Sprague Dawley rats); conditions: for half-life: read-out: T1/2 (elimination half-life) (converted)
# Method: The determination method for the absolute bioavailability of the intragastric administration of the mesylate salts of the compound of formula (I) is as follows: • For intravenous administration: Healthy SD rats are randomly grouped. The tested compound is administered in a certain dosage D through the intravenous administration. The blood samples are collected through the retrobulbar venous plexus before the administration and 5 min, 15 min, 0.5 h, 1.0 h, 2.0 h, 4.0 h, 8.0 h, 12 h and 24 h after the administration, and separated to give plasmas. […] The tested substance is administered in a certain dosage D through the intragastric administration.
# After dosage calibration, the absolute bioavailability F is calculated by the area under the drug concentration-time curve (AUC0-t). The calculation equation is as follows: F=(AUCintragastric×Dintravenous)/(AUCintravenous[…])×100%.
# For intragastric administration: 16 healthy (half male and half female) SD rats with 200-280 g body weight, provided by Shanghai Sippr-BK laboratory animal Co. Ltd., were assigned randomly to 4 groups.
# After dosage calibration, the absolute bioavailability F was obtained by calculation of AUC0-t. The calculation equation was as follows: F=(AUCintragastric×Dintravenous)/(AUCintravenous×Dintragastric)×100%. The obtained absolute bioavailability F data are shown in the above table 2.
# [2] = Drug absorption experiment in SD rats, intravenous administration; assay type: in vivo, SD rats (Sprague Dawley rats); conditions: plasma
# Method: The determination method for the absolute bioavailability of the intragastric administration of the mesylate salts of the compound of formula (I) is as follows: • For intravenous administration: Healthy SD rats are randomly grouped. The tested compound is administered in a certain dosage D through the intravenous administration. The blood samples are collected through the retrobulbar venous plexus before the administration and 5 min, 15 min, 0.5 h, 1.0 h, 2.0 h, 4.0 h, 8.0 h, 12 h and 24 h after the administration, and separated to give plasmas. The concentration of the drug in plasma is determined with the liquid chromatography-tandem mass spectrometry method to give a drug concentration-time curve. • For intragastric administration: Healthy SD rats are randomly grouped. The tested substance is administered in a certain dosage D through the intragastric administration. The intravenous blood samples are collected through the rat's retrobulbar venous plexus before the administration and 0.5, 1.0, 2.0, 4.0, 6.0, 8.0, 10, 12 and 24 h after the administration, and separated to give plasmas. The concentration of the drug in plasma is determined with the liquid chromatography-tandem mass spectrometry method to give a drug concentration-time curve.
# For intravenous administration: 16 healthy (half male and half female) SD rats with 200-280 g body weight, provided by Shanghai Sippr-BK laboratory animal Co. Ltd., were assigned randomly to 4 groups. […] 0.2 ml of the intravenous blood samples were collected through the rat's retrobulbar venous plexus before the administration and 5 min, 15 min, 0.5 h, 1.0 h, 2.0 h, 4.0 h, 8.0 h, 12 h and 24 h after the administration, and separated to give plasmas. The concentration of the drug in plasma was determined with the liquid chromatography-tandem mass spectrometry method to give a drug concentration-time curve.
# T1/2: elimination half-life; Cmax: maximum drug concentration in plasma; AUC0-t: area under drug concentration-time curve.
# [3] = system: subcutaneously transplanted tumors of human lung cancer H1975; assay: Inhibition effect on the growth of subcutaneously transplanted tumors of human lung cancer H1975-bearing nude mice; assay type: in vivo; conditions: 25 mg/kg intragastric, once per day for 21 days
# From the text: The pharmacodynamics of the mesylate salts of the compound of formula (I) in terms of inhibiting the growth of transplanted tumors in animal may be assayed by conventional methods. One preferable evaluation method aims to the inhibitory effect on the growth of subcutaneously transplanted tumors of human lung cancer H1975-bearing nude mice. The experimental method may be as follows: human lung cancer H1975 cell strain (5×10^6/each mouse) is inoculated to nude mice subcutaneously at the right side of the back thereof. After the tumors grow to 100-150 mm^3 on average, the animals are divided into groups randomly according to the tumor size and the animal weight. […] During the entire experimental process, the animal weight and the tumor size are measured twice per week, so as to observe whether or not the toxic reaction occurs.
# The tumor volume is calculated as follows: Tumor volume (mm^3)=0.5×Tumor major diameter×Tumor minor diameter×Tumor minor diameter. […]
# Cell cultivation: H1975 was placed in a RPMI-1640 medium containing 10% FBS, and cultivated in a temperature-constant incubator containing 5% CO2 at 37° C. The cells in exponential growth phase were collected and counted for inoculation. […]
# The tumor volume was calculated as follows: Tumor volume (mm^3)=0.5×Tumor major diameter×Tumor minor diameter×Tumor minor diameter.
# [4] = both sexes, Sprague-Dawley, rat, plasma, po, intragastric, dosage 10 (Example 1), 10 (Example 2), 6 (Comparative Example 1), 10 (Comparative Example 2) mg/kg, plasma, read-out: AUC0-t
# [5] = both sexes, Sprague-Dawley, rat, plasma, po, intragastric, dosage 10 (Example 1), 10 (Example 2), 6 (Comparative Example 1), 10 (Comparative Example 2) mg/kg, plasma, read-out: Cmax
# [6] = both sexes, Sprague-Dawley, rat, plasma, po, intragastric, dosage 10 (Example 1), 10 (Example 2), 6 (Comparative Example 1), 10 (Comparative Example 2) mg/kg, plasma
# [7] = SD rats, intravenous, dosage 2.5 (Example 1), 4.0 (Example 2), 3.0 (Comparative Example 1), 4.0 (Comparative Example 2) mg/kg
# [8] = intragastric, dosage 10 (Example 1), 10 (Example 2), 6 (Comparative Example 1), 10 (Comparative Example 2) mg/kg, plasma
smiles,measurement,setting,value
"C=CC(=O)Nc1cc(Nc2nccc(-c3cn(C)c4ccccc34)n2)c(OC(C)C)nc1N(C)CCN(C)C [Comparative Example 1, reference compound]",AUC(0-t),[1]; [4],77.7 ng·h/mL
same,Cmax,[1]; [5],12.6 ng/mL
same,half-life,[1]; [6],8.6 h
"C=CC(=O)Nc1cc(Nc2ncc(Cl)c(-c3cn(C)c4ccccc34)n2)c(OC(C)C)nc1N(C)CCN(C)C [Comparative Example 2, reference compound]",AUC(0-t),[1]; [4],172 ng·h/mL
same,Cmax,[1]; [5],28.3 ng/mL
same,half-life,[1]; [6],5.76 h
"C=CC(=O)Nc1cc(Nc2nccc(-c3cn(C)c4ccccc34)n2)c(OCC(F)(F)F)nc1N(C)CCN(C)C [Example 1, N-{2-{[2-(dimethylamino)ethyl](methyl)amino}-6-(2,2,2-trifluoroethoxy)-5-{[4-(1-methyl-1H-indol-3-yl)pyrimidin-2-yl]amino}pyridin-3-yl}acrylamide]",AUC(0-t),[2]; [7],307.3 ng·h/mL
same,Cmax,[2]; [7],81.3 ng/mL
same,T1/2 (elimination half-life),[2]; [7],3.96 h
same,AUC(0-t),[1]; [4],232 ng·h/mL
same,F (absolute bioavailability),"[1]; intragastric vs intravenous, calculated from AUC0-t after dosage calibration",18.85%
same,Cmax,[1]; [8],17.6 ng/mL
"C=CC(=O)Nc1cc(Nc2nccc(-c3cn(C)c4ccccc34)n2)c(OCC(F)(F)F)nc1N(C)CCN(C)C [Example 2, mesylate salt of N-{2-{[2-(dimethylamino)ethyl](methyl)amino}-6-(2,2,2-trifluoroethoxy)-5-{[4-(1-methyl-1H-indol-3-yl)pyrimidin-2-yl]amino}pyridin-3-yl}acrylamide]",AUC(0-t),"[2]; both sexes, Sprague-Dawley, rat, iv, read-out: AUC0-t",406 ng·h/mL
same,Cmax,"[2]; both sexes, Sprague-Dawley, rat, iv, read-out: Cmax",430 ng/mL
same,half-life,"[2]; both sexes, Sprague-Dawley, rat, iv, read-out: T1/2 (elimination half-life) (converted)",3.13 h
same,Inhibition effect on the growth of subcutaneously transplanted tumors,[3],good inhibition effect
same,"Safety (body weight, toxic reaction)",[3],good safety
same,bioavailability,"[1]; both sexes, Sprague-Dawley, rat, plasma, oral, intragastric vs intravenous, calculated from AUC0-t after dosage calibration, read-out: F (absolute bioavailability)",28.3%
same,AUC(0-t),[1]; [8],287 ng·h/mL
same,Cmax,[1]; [8],44.54 ng/mL
same,T1/2 (elimination half-life),[1]; [8],8.33 h

# Reference: patent publication US10472349B2, “Salt of pyridinyl amino pyrimidine derivative, preparation method therefor, and application thereof” (SHANGHAI ALLIST PHARMACEUTICALS, INC., priority 2016, dated 2019)
